# Data: patent publication US8841321B2, “Quinoline derivatives as antibacterial agents” (Janssen Pharmaceutica NV, priority 2005, dated 2014)
# Key:
# Experiment in all cases: Microtitre plate assay, IC90 determination
# Format in all cases: cell-based
# [1] = tested on: SPY 8668 (Streptococcus pyogens (ATCC8668)); settings: for IC90 (μg/ml) SPY 8668: Streptococcus pyogens (ATCC8668); for IC90: Streptococcus, ATCC8668, Streptococcus pyogens (ATCC8668), read-out: IC90 (μg/ml) SPY 8668
# [2] = tested on: STA 29213 (Staphylococcus aureus (ATCC29213)); settings: for IC90 (μg/ml) STA 29213: Staphylococcus aureus (ATCC29213); for IC90: Staphylococcus aureus, ATCC29213, Staphylococcus aureus (ATCC29213), read-out: IC90 (μg/ml) STA 29213
# In short: (§1)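 Growth-inhibition endpoint: resazurin added 3 h after inoculation, plates incubated overnight, fluorescence at 530/590 nm after 24 h at 37 °C. Inocula of roughly 10–60 CFU per well in Mueller-Hinton medium; compounds titrated five-fold. IC90 reported as μg/ml.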
# [3] = tested on: SPN 6305 (Streptococcus pneumoniae (ATCC6305)); settings: for IC90 (μg/ml) SPN 6305: Streptococcus pneumoniae (ATCC6305)
# In short: as §1
# [4] = tested on: PAE 27853 (Pseudomonas aeruginosa (ATCC27853)); settings: for IC90 (μg/ml) PAE 27853: Pseudomonas aeruginosa (ATCC27853); for IC90: Pseudomonas aeruginosa, ATCC27853, Pseudomonas aeruginosa (ATCC27853), read-out: IC90 (μg/ml) PAE 27853
# [5] = tested on: EFA 29212 (Enterococcus faecalis (ATCC29212)); settings: for IC90 (μg/ml) EFA 29212: Enterococcus faecalis (ATCC29212); for IC90: Enterococcus faecalis, ATCC29212, Enterococcus faecalis (ATCC29212), read-out: IC90 (μg/ml) EFA 29212
# [6] = tested on: STA RMETH (methicilline resistant Staphylococcus aureus (MRSA), a clinical isolate from the University of Antwerp); settings: for IC90: Staphylococcus aureus, MRSA, read-out: IC90 (μg/ml) STA RMETH
SMILES,IC90 (μg/ml) SPY 8668 [1] [µg/mL],IC90 (μg/ml) STA 29213 [2] [µg/mL],IC90 (μg/ml) SPN 6305 [3] [µg/mL],IC90 (μg/ml) PAE 27853 [4] [µg/mL],IC90 (μg/ml) EFA 29212 [5] [µg/mL],IC90 (μg/ml) STA RMETH [6] [µg/mL],IC90 [6] [µg/mL],IC90 [2] [µg/mL],"IC90 ([3]; Streptococcus pneumoniae, ATCC6305, Streptococcus pneumoniae (ATCC6305), read-out: IC90 (μg/ml) SPN 6305) [µg/mL]",IC90 [5] [µg/mL],IC90 [1] [µg/mL],IC90 [4] [µg/mL]
"COc1nc2ccccc2cc1C(c1cccc(Br)c1)C(O)(CCCCN(C)C)c1ccc2ccccc2c1 (single isomer, unassigned) [Compound 159]",1.47,1.85,0.41,1.85,1.85,,,,,,,
"COc1nc2ccc(C)cc2cc1C(c1ccccc1)C(O)(CCCCCN(C)C)c1ccccc1 (single isomer, unassigned) [Compound 152]",38.3,7.7,1.5,38.3,38.3,,,,,,,
CSc1nc2ccc(Br)cc2cc1C(c1ccccc1)C(O)(CCCCN(C)C)c1ccccc1 (stereo not drawn) [Compound 1],1.74,1.74,1.74,1.95,6.92,12.3,,,,,,
COc1nc2cc(Br)ccc2cc1C(c1ccccc1)C(O)(CCCCN(C)C)c1ccc2ccccc2c1 (stereo not drawn) [Compound 32],1.9,1.9,1.9,1.9,1.9,,11.6,,,,,
COc1ccc2cc(C(O)(CCCCN(C)C)C(c3ccccc3)c3cc4ccccc4nc3OC)ccc2c1 (stereo not drawn) [Compound 35],3.8,,,8.5,,,10.7,2.1,1.7,8.5,,
"COc1nc2ccc(Br)cc2cc1C(c1ccccc1)C(O)(CCCCN(C)C(C)C)c1ccccc1 (single isomer, unassigned) [Compound 89]",8.9,11.2,2.24,11.2,11.2,,,,,,,
"COc1nc2ccc(Br)cc2cc1C(c1ccccc1)C(O)(CCCCN(C)C)CCCc1ccccc1 (single isomer, unassigned) [Compound 145]",5.13,5.76,2.29,9.12,9.12,,,,,,,
COc1nc2ccc(Br)cc2cc1C(c1ccccc1)C(O)(CCCCN1CCNCC1)c1ccc2ccccc2c1 (stereo not drawn) [Compound 107],,,0.39,,,,,1.98,,1.98,1.98,1.98
"COc1nc2ccc(Br)cc2cc1C(c1ccccc1)C(O)(CCCCCN(C)C)c1ccccc1 (single isomer, unassigned) [Compound 154]",8.68,1.75,1.75,8.68,,,,,,,,
"COc1nc2ccc(Br)cc2cc1C(c1ccccc1)C(O)(CCCCN(C)C)CCCc1ccccc1 (single isomer, unassigned) [Compound 144]",1.82,9.12,2.29,1.82,1.82,,,,,,,
COc1nc2ccccc2cc1C(c1ccc(Br)cc1)C(O)(CCCCN(C)C)c1ccc2ccccc2c1 (stereo not drawn) [Compound 64],,1.85,1.85,,,,,,,1.85,1.85,0.46
